Experimental data reported in paper PMC5664251, “Synthesis and Cytotoxic Evaluation of Steroidal Copper (Cu (II)) Complexes” (Bioinorganic Chemistry and Applications, 2017).

How the values were obtained:
Format in all cases: cell-based
[1] = tested on: Bel-7404 (human liver carcinoma); experiment: MTT antiproliferative/cytotoxicity assay, Bel-7404; settings: mean of three independent determinations
Method: (§1) Melting points were determined on an X4 apparatus (Beijing Tech Instrument Co. Ltd., Beijing, China) and were uncorrected. The ^1H and ^13C NMR spectra were recorded in CDCl3 on a Bruker AV-600 spectrometer at working frequencies of 600 and 150 MHz and a Bruker AV-300 spectrometer at working frequencies of 300 and 75 MHz, respectively. Chemical shifts are expressed in parts per million (δ) values and coupling constants (J) in Hertz. Infrared spectra were measured with a Thermo Scientific Nicolet IS-10 Spectrophotometer (Thermo Scientific, USA). HREIMS was measured on an Agilent 6210 TOFMS instrument (Agilent Technologies, USA). The cell proliferation assay was undertaken by a MTT method using 96-well plates on a […] MK3 analysis spectrometer (Thermo Scientific, Shanghai, China).
(§2) The detailed procedure had been reported in our previous work.

[2] = tested on: HeLa (human cervical carcinoma); experiment: MTT antiproliferative/cytotoxicity assay, HeLa; settings: mean of three independent determinations
Method: as §1, §2

[3] = MTT cytotoxicity assay, 293T normal cells; settings: human, HEK-293T normal kidney epithelial cells, mean of three independent determinations
Method: as §1, §2

| Compound | IC50 [1] | IC50 [2] | IC50 [3] |
| --- | --- | --- | --- |
| CC12CCC3c4ccc(O)cc4CCC3C1CCC2=NNC(N)=S (centres unmarked) [Compound 1] | 19 µM | 34 µM |  |
| CC(=O)Oc1ccc2c(c1)CCC1C2CCC2(C)C(=NNC(N)=S)CCC12 (centres unmarked) [Compound 2] | > 200 µM | 42 µM | > 200 µM |
